In US11357823B2, “Method for treating cerebral stroke” (Suzhou Yabao Pharmaceutical R&D Co., Ltd., priority 2019, dated 2022):
Where two headings read alike, the source gives them in different places.

Legend:
[1] = test system: acute cerebral ischemia-reperfusion injury in rats; assay type: in vivo; details: for Scope of cerebral infarction (%): Edaravone 6.0 mg/kg i.v., TTC staining 24 hours after ischemia, Mean ± SEM, model group 42.53 ± 3.27
[2] = test system: cortical neurons; assay: NMDA-induced excitotoxic damage on cortical neurons; assay type: cell-based, SD rats; details: A5 pretreatment then NMDA, compared with NMDA group; trypan blue, TUNEL, immunofluorescence
Excerpt: Example 5 studied the neuroprotective effect of A5 protein on NMDA (N-methyl-D-aspartate)—induced excitotoxic damage on cortical neurons in rats. NMDA can activate NMDA receptor to increase Ca^2+ content in brain tissue, and NOS is activated in a large amount, which leads to a series of physiological or pathological changes such as the synthesis of a large number of NO, causing damage to neurons in brain. In order to observe the neuroprotective effect of A5 protein on neuronal damage induced by excitotoxicity, the neuron was pretreated with A5 protein.
In the experiment, 17 day embryonic SD rats were selected and the cortical neurons were cultured. Then the neurons were divided into control group, NMDA group and A5 pretreatment group. The neurons in NMDA group were added with NMDA for exposure, and the neurons in A5 pretreatment group were incubated with A5 protein for a period of time, and then added with NMDA. For different treatment groups, trypan blue staining was used to evaluate cell viability, TUNEL staining was used to detect apoptosis cells and immunofluorescence cytochemistry was used to detect neuron morphology.

[3] = test system: primary purified microglia; assay: LPS-induced over activation of primary purified microglia; assay type: cell-based; details: LPS-stimulated primary microglia; MTT, cellular immunochemistry
Excerpt: Microglia plays an important role in the inflammatory process of the central nervous system. The moderate activation of microglia can protect neurons, but the over activated microglia will release a large number of neurotoxic factors, such as […], which will lead to the occurrence of neurodegenerative diseases. Lipopolysaccharide (LPS) can activate microglia, which leads to the over activation of microglia and the damage of neurons. A5 was used to observe the effect of LPS on the over activation of microglia.
During the experiment, LPS was used to stimulate the primary purified microglia as the control group, and A5 protein was added as the experimental group. For the above treatment, MTT method was used to detect cell viability, and cellular immunochemistry method was used to observe cell morphological changes. […] Therefore, A5 protein can be used to inhibit the over activation of immune cells in the brain, such as microglia.

[4] = test system: rat model of focal cerebral ischemia; assay: rat model of focal cerebral ischemia established by light irradiation; assay type: in vivo; details: annexin A5 injected into the caudal vein
Description: (§1) It was confirmed by the rat model of ischemia-reperfusion that the annexin A5 could reduce the area of cerebral infarction, improve the symptoms of neurological deficits and promote long-term motor recovery in rats. For example, a rat model of focal cerebral ischemia was established by light irradiation, and then annexin A5 was injected into the caudal vein. […] Take another example, the rat model of hemorrhagic stroke was established by intracerebral injection of autologous arterial blood, and then the rats were injected with annexin A5 injection via caudal vein.

[5] = test system: cynomolgus monkeys; assay: Toxicity of A5 protein in single intravenous injection in cynomolgus monkeys; assay type: in vivo
Description: A single intravenous injection of A5 protein was used to observe the acute toxicity and its severity and main toxic target organs in cynomolgus monkeys. The dosage was 0 (blank adjuvant), 500, 1500 and 4500 μg/kg respectively. After the single intravenous injection, observe the clinical symptoms of the animals (including feces, appearance, respiration, nerve reaction, activity status, etc.) until the 15th day after the administration. After administration, the food intake was measured once a day and the body weight was measured once a week. The body temperature, blood pressure and electrocardiograph (ECG) of the animals were measured before and after administration on the day of administration, and again on the 1st, 7th and 15th day of administration. Hematology (including blood coagulation) and serum biochemical examination were carried out for all animals on the 1st, 7th and 15th day after administration, and urine examination was carried out on the 14th day after administration. On the 15th day after administration, the animals were dissected for macropathological examination, and if necessary, for histopathological examination. […] In this experiment, the maximum-tolerated dose (MTD) of cynomolgus monkeys was more than […].

[6] = test system: primary cortical neurons; assay: Oxygen glucose deprivation (OGD) model with primary cortical neurons; assay type: cell-based; details: 8 hours anoxic culture, A5 in DMEM during 24 hours reoxygenation; CCK-8, flow cytometry
Description: Oxygen glucose deprivation (OGD) model is a stimulation model simulating ischemia/hypoxia at the cell level. By changing the cell culture conditions, such as putting the cells into the hypoxia box or into the sugar free medium, the damage of cells under the condition of ischemia/hypoxia is simulated.
OGD model was established with primary cortical neurons. The cells in the culture plate were washed twice with PBS, and then the glucose-free DMEM exchanged with 95% N2+5% CO2 for 30 minutes was added. Then the cells were quickly placed in 37° C., 94% N2+1% O2+5% CO2 hypoxia incubator. After 8 hours of anoxic culture, the corresponding DMEM medium (i.e. DMEM medium containing A5) was added, and then put the plate into a 37° C. 5% CO2 cell incubator for 24 hours of reoxygenation. After 24 hours of culture, morphological changes were observed under inverted microscope, cell survival rate was detected by CCK-8 colorimetry and apoptosis rate was detected by flow cytometry. At the same time, the treatment group of normoxia and normal glucose was set as the control group.

[7] = test system: SD rats; assay: Toxicity of A5 protein in single intravenous injection in SD rats; assay type: in vivo
Description: In this study, A5 protein was injected intravenously once in SD rats to observe the acute toxicity, severity and main toxic target organs. The dosage was 0 (blank adjuvant), 1000, 3000 and 9000 μg/kg respectively. After the intravenous injection, the animal's posture, gait, reaction, nerve activity, appetite, fur, eyes, ears, mouth, nose, limbs, breath, feces and other clinical symptoms were observed continuously. After that, the recovery from toxic reaction was observed continuously until the 14th day after administration. The animals were dissected and examined for macropathology 15 days after administration. […] The maximum-tolerated dose (MTD) of single intravenous injection of A5 protein was more than […].

[8] = test system: rat model of hemorrhagic stroke; assay: rat model of hemorrhagic stroke by intracerebral injection of autologous arterial blood; assay type: in vivo; details: annexin A5 injection via caudal vein
Description: as §1

[9] = test system: co-cultured spontaneously transformed endothelial cell line and purified rat astrocytes; assay: blood-brain barrier (BBB) model in vitro; assay type: cell-based; details: BBB model injured after stimulation, then treated with A5 protein
Excerpt: Blood brain barrier is composed of three components: brain microvascular endothelial cells, astrocytes and basement membrane. The damage of blood-brain barrier is one of the important pathology of stroke.
In the experiment, the blood-brain barrier model was established by co-culturing spontaneously transformed endothelial cell line and purified rat astrocytes. The blood-brain barrier (BBB) model in vitro was injured after stimulation, and then treated with A5 protein.

Row | Compound | Scope of cerebral infarction (%) [1] [%] | Scope of cerebral infarction (%) ([1]; listed as edaravone) | damage of excitatory toxicity to neurons [2] | over activation of microglia induced by LPS [3] | area of cerebral infarction [4] | neurological deficit symptoms [4] | prothrombin time (PT), activated partial thromboplastin time (APTT) and thrombin time (TT) ([5]; 1st day and 15th day after administration) | clinical symptoms, injection site, body weight, food intake, body temperature, blood pressure, ECG, urinalysis, serum biochemical and pathological examination ([5]; single i.v. 500, 1500 and 4500 μg/kg, to day 15) | damage of neurons caused by oxygen glucose deprivation [6] | macropathological examination of tissues and organs ([7]; 15 days after administration) | weight changes ([7]; female and male animals in the administration group) | clinical symptoms ([7]; single i.v. 1000, 3000 and 9000 μg/kg, observed to day 14) | bleeding risk ([1]; experimental group treated with annexin A5, MCAO rats) | area of cerebral infarction [8] | neurological deficit symptoms [8] | repair of damaged blood-brain barrier [9]
1 | CC1=NN(c2ccccc2)C(=O)C1 [Edaravone] | 35.93 ± 3.94 | trend of reducing |  |  |  |  |  |  |  |  |  |  |  |  |  | 
2 | A5: recombinant human full-length annexin A5 expressed in E. coli, SEQ ID NO:1, 319 amino acids, N-terminal alanine not acetylated |  |  | reduce the damage of excitatory toxicity to neurons | inhibit the over activation of microglia induced by LPS | decreased significantly | improved | no significant change | no significant changes | reduce the damage of neurons caused by oxygen glucose deprivation | no abnormality was found | normal | normal | no bleeding risk | decreased | significantly improved | repair the damaged blood-brain barrier
